Key:
Type in all cases: biochemical
[1] = molecular target: JAK2: Recombinant human kinase domain (Homo sapiens, UniProt O60674); assay: JAK2 kinase inhibition, radioactive end-point assay; conditions: 1 nM JAK2, ATP 1.5 uM, peptide 50 uM, 20 minutes, room temperature; read-out: IC50 h-jak2-sf21-c
Source text: (§1) Determination of IC50 of Janus Kinase (JAK) Inhibition: […]

[2] = molecular target: JAK3: Recombinant human kinase domain (Homo sapiens, UniProt P52333); assay: JAK3 kinase inhibition, radioactive end-point assay; conditions: 0.5 nM or 0.2 nM JAK3, ATP 1.5 uM, peptide 50 uM, 20 minutes, room temperature; read-out: IC50 h-jak3-sf21-c
Sequence of JAK3: Recombinant human kinase domain (P52333 822-1111 limits assumed): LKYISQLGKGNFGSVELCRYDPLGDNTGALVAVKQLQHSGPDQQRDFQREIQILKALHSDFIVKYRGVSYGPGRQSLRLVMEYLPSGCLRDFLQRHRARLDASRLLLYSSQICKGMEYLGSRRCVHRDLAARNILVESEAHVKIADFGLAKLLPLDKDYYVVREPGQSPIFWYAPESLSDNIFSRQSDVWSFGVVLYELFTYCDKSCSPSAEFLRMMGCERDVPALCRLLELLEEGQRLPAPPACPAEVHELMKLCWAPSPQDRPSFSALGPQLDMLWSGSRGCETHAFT
Source text: as §1

[3] = molecular target: JAK1: Recombinant human kinase domain (Homo sapiens, UniProt P23458); assay: JAK1 kinase inhibition, radioactive end-point assay; conditions: 5 nM JAK1, ATP 10 uM, peptide 50 uM, 40 minutes, room temperature; read-out: IC50 h-jak1-sf21-c
Sequence of JAK1: Recombinant human kinase domain (P23458 875-1153 limits assumed): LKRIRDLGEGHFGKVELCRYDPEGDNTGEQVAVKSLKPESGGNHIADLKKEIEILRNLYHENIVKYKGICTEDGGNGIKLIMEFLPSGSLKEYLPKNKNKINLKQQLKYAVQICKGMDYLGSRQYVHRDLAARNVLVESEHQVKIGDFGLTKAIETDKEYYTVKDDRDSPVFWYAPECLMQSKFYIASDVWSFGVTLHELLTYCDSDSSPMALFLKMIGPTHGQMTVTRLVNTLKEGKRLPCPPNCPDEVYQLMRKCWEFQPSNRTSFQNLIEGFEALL
Source text: as §1

[4] = molecular target: T1, recombinant human SYK360-635 (Homo sapiens, UniProt P43405); assay: SYK kinase assay, 33P ATP incorporation into biotinylated peptide; conditions: 0.5 nM SYK aa 360-635, ATP 20 μM, peptide 5 μM, 15 min at 30° C.; read-out: IC50 h-syk (360-635)-baculovirus-c
T1 construct: truncated construct of Spleen Tyrosine Kinase aa 360-635; made in house
Experimental: SYK Assay Information Determination of IC50 of Spleen Tyrosine Kinase (SYK) Inhibition:
SYK kinase assay is a standard kinase assay adapted to a 96 well plate format. This assay is performed in 96-well format for IC50 determination with 8 samples which represented 10 half log dilutions and a 40 μL reaction volume. The assay measures the incorporation of radiolabeled ^33P γATP into an N-terminally biotinylated peptide substrate, derived from naturally occurring phosphoacceptor consensus sequence (Biotin-11aa DY*E). Phosphorylated products were detected upon termination of reactions with EDTA and the addition of Streptavidin coated beads. […]
The unbound radionucleotides were washed under vacuum with 3×250 μL 2M NaCl; 2×250 μL 2M NaCl+1% phosphoric acid; 1×250 μL H2O. After the last wash membrane/plates were transferred to an adaptor plate, heat dried for 15 min at 60° C., and 50 μL scintillation cocktail was added to each well and 4 h later the amount of radioactivity was counted in a top counter.
The percent inhibition was calculated based on the uninhibited enzyme rate: % Inhibition=100/(1+(IC50/Inhibitor cone)^n) • The IC50 was calculated using a non-linear curve fit with XLfit software (ID Business Solution Ltd., Guilford, Surrey, UK).

Sequence of JAK2: Recombinant human kinase domain (O60674 849-1124 limits assumed): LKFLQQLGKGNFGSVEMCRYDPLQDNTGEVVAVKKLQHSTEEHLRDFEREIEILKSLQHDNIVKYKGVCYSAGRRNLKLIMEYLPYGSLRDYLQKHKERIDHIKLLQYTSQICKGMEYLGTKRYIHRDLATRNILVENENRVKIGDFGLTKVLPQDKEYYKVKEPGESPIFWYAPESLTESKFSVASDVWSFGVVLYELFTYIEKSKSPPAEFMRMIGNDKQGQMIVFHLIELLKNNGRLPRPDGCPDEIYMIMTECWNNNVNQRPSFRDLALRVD

SMILES	IC50 [1] [nM]	IC50 [2] [nM]	IC50 [3] [nM]	IC50 [4] [nM]
COc1cc(-c2cnc3[nH]cc(C(=O)NCC(C)OC)c3n2)cc(OC)c1OC (centres unmarked) [Example I-82, 2-(3,4,5-Trimethoxy-phenyl)-5H-pyrrolo[2,3-b]pyrazine-7-carboxylic acid (2-methoxy-propyl)-amide]	10.8	4.6	90	36
COc1cc(-c2cnc3[nH]cc(C(=O)C4(C)CCCCC4)c3n2)cc(OC)c1OC [Example I-117, (1-Methyl-cyclohexyl)-[2-(3,4,5-trimethoxy-phenyl)-5H-pyrrolo[2,3-b]pyrazin-7-yl]-methanone]	107	6.8		162
CC(C)(C)C(=O)c1c[nH]c2ncc(-c3cccc(N4CCCC4)c3)nc12 [Example I-64, 2,2-Dimethyl-1-[2-(3-pyrrolidin-1-yl-phenyl)-5H-pyrrolo[2,3-b]pyrazin-7-yl]-propan-1-one]	3440	24.1	2100	1310
COc1cc(-c2cnc3[nH]cc(C(=O)C(C)(C)C)c3n2)cc(OC)c1OC [Example I-12, 2,2-Dimethyl-1-[2-(3,4,5-trimethoxy-phenyl)-5H-pyrrolo[2,3-b]pyrazin-7-yl]-propan-1-one]	455	56.1		317
